The nature of series [1]: Qualitative gelation assay in PBS. The settings on record: 10 mg/mL DMSO stock added to 1×PBS pH 7.4. Format: physicochemical. As to the method:
Gel formation of the teixobactin analogues was compared to that of the O-acyl isopeptide prodrugs in a qualitative gelation assay. In this experiment, a 10 mg/mL stock solution of the peptide trifluoroacetate salt in DMSO is added to 1×PBS buffer at pH 7.4 and gel formation is observed over time. Crystal violet is added to the PBS buffer to facilitate the visualization of the gels by providing contrast. […] In contrast, when the Lys10-teixobactin prodrugs are added, no immediate gel formation occurs.
Gelation assays of the O-acyl isopeptide prodrug analogues of teixobactin were performed using procedures previously reported. See K. Chen, et al., Chem. Commun. 2017, 53, 11357-11359, the disclosure of which is herein incorporated by reference.

For series [2], the system named is human red blood cells. Nature of the series: Hemolytic assay. Format: cell-based. As to the method:
The hemolytic activity of the O-acyl isopeptide prodrugs and the corresponding teixobactin analogues were evaluated with human red blood cells (FIGS. 9A to 9H). Triton X-100 and melittin were used as positive controls and vancomycin and water (vehicle) were used as negative controls in the hemolysis assays. […] In contrast, 0.002% polysorbate 80 had no effect on the hemolytic activity of Lys10-teixobactin and Leu10-teixobactin and little effect on the corresponding O-acyl isopeptide prodrug analogues. When the hemolysis assays were performed with teixobactin, no hemolysis was observed up to 100 μg/mL without polysorbate 80 and modest hemolysis (4%) at 100 μg/mL with 0.002% polysorbate 80.
Preparation of Phosphate-Buffered Saline (PBS) Buffers. A 10×PBS buffer was prepared by dissolving 8.9 g of Na2HPO4, 1.2 g KH2PO4, 40 g NaCl, and 1 g KCl in 500 mL of 18 MO deionized water. The solution was stirred until the buffer salts were completely dissolved. The pH of the 10×PBS buffer was adjusted to 7.4 using either 1 M HCl or 1 M NaOH and was subsequently sterile filtered. To create a 1×PBS buffer, the 10×PBS buffer was diluted 10-fold using 18 MO deionized water. Another 1×PBS buffer was made, supplemented with 0.002% polysorbate 80.
Preparation of human red blood cells. Whole human blood was stored in a 4° C. in K2 EDTA to prevent coagulation. On the day of cell treatment, the blood was centrifuged at 800×g for 5 min at 4° C. to isolate red blood cells (RBCs). The plasma layer was then removed and discarded. Approximately 3 mL of 150 mM NaCl solution was added to the RBCs and mixed gently by inversion. The RBCs were centrifuged at 800×g for 8 min at 4° C. and the supernatant was discarded. An additional wash with 150 mM NaCl was performed, centrifuged at 800×g for 8 min at 4° C. and the supernatant was discarded. 2 mL of whole RBCs were transferred to a 15-mL conical tube. Approximately 4 mL of 1×PBS was added to the RBCs and inverted gently to mix. The RBCs were centrifuged at 800×g for 8 min at 4° C. […]
Hemolytic assay readout. […]

For series [3], the system named is four Gram-positive bacteria (methicillin-susceptible and methicillin-resistant S. aureus, B. subtilis, S. epidermidis). Format: cell-based. The procedure: The antibiotic activity of the teixobactin O-acyl isopeptide prodrugs was evaluated using minimum inhibitory concentration (MIC) assays with four Gram-positive bacteria and compared the MIC values to those of the parent teixobactin analogues. Methicillin-susceptible and methicillin-resistant S. aureus were used as representative pathogens and B. subtilis and S. epidermidis as additional Gram-positive bacteria, and E. coli was used as a Gram-negative control. The activities of the teixobactin analogues and prodrugs were compared to those of teixobactin and vancomycin.
Bacillus subtilis (ATCC 6051), Staphylococcus epidermidis (ATCC 14990), Staphylococcus aureus (ATCC 29213), and Escherichia coli(ATCC 10798) were cultured from glycerol stocks in Mueller-Hinton broth overnight in a shaking incubator at 37° C. Staphylococcus aureus (ATCC 700698) was cultured from a glycerol stock in brain heart infusion broth overnight in a shaking incubator at 37° C. An aliquot of a 1 mg/mL antibiotic stock solution in DMSO was diluted with appropriate culture media to make a 64 μg/mL solution. […] The overnight cultures of each bacterium were diluted with Mueller-Hinton broth to an OD600 of 0.075 as measured for 200 μL in a 96-well plate. […] The OD600 were measured using a 96-well UV/vis plate reader (MultiSkan GO, Thermo Scientific). […]

Consider `CC[C@H](C)[C@H](NC(=O)[C@@H](Cc1ccccc1)NC)C(=O)N[C@@H](CO)C(=O)N[C@H](CCC(N)=O)C(=O)N[C@@H](C(=O)N[C@H](C(=O)N[C@@H](CO)C(=O)N[C@H]1C(=O)N[C@@H](C)C(=O)N[C@@H](CCCNC(=N)N)C(=O)N[C@@H]([C@@H](C)CC)C(=O)O[C@H]1C)[C@@H](C)CC)[C@@H](C)CC` [Arg10-teixobactin], for which the “gel formation immediately upon addition to PBS” value in series [1] is “form gels immediately”. For the compound `CC[C@H](C)[C@H](NC(=O)[C@@H](Cc1ccccc1)NC)C(=O)N[C@@H](CO)C(=O)N[C@H](CCC(N)=O)C(=O)N[C@@H](C(=O)N[C@H](C(=O)N[C@@H](CO)C(=O)N[C@H]1C(=O)N[C@@H](C)C(=O)N[C@@H](CC(C)C)C(=O)N[C@@H]([C@@H](C)CC)C(=O)O[C@H]1C)[C@@H](C)CC)[C@@H](C)CC` [Leu10-teixobactin], the “gel formation immediately upon addition to PBS” value in series [1] is on record as “form gels immediately”. Also, the “effect of 0.002% polysorbate 80 on hemolytic activity” value in series [2] was “no effect”. For the compound `CC[C@H](C)[C@H](NC(=O)[C@@H](Cc1ccccc1)NC)C(=O)N[C@@H](CO)C(=O)N[C@H](CCC(N)=O)C(=O)N[C@@H](C(=O)N[C@H](C(=O)N[C@@H](CO)C(=O)N[C@H]1C(=O)N[C@@H](C)C(=O)N[C@@H](CCCCN)C(=O)N[C@@H]([C@@H](C)CC)C(=O)O[C@H]1C)[C@@H](C)CC)[C@@H](C)CC` [Lys10-teixobactin], in series [1], the “gel formation immediately upon addition to PBS” value is on record as “large gelatinous aggregates form immediately”. In series [2], the “effect of 0.002% polysorbate 80 on hemolytic activity” value is given as “no effect”. In addition, the MIC (as a rule, the smallest concentration in the dilution series that meets the test's criterion for growth inhibition) in series [3] is 2 to 4 µg/mL. Consider `CN[C@H](CC(C)C)C(=O)N[C@H]1C(=O)N[C@@H](CC(N)=O)C(=O)N[C@H]2C(=O)N[C@H]3C(=O)N[C@H](C(=O)N[C@H](C(=O)O)c4cc(O)cc(O)c4-c4cc3ccc4O)[C@H](O)c3ccc(c(Cl)c3)Oc3cc2cc(c3O[C@@H]2O[C@H](CO)[C@@H](O)[C@H](O)[C@H]2O[C@H]2C[C@](C)(N)[C@H](O)[C@H](C)O2)Oc2ccc(cc2Cl)[C@H]1O` [vancomycin], for which the hemolysis result in series [2] (concentrations up to 100 μg/mL, with and without 0.002% polysorbate 80) is recorded as “No hemolysis”.

The record behind these values is patent US20250011366A1, “Prodrugs of Antibiotic Teixobactin” (priority 2021, published 2025).
